Converted amounts (≈) assume the structure as drawn.
Key:
[1] = tested on: Human Breast Cancer Cell Line MDA-MB-231; experiment: Growth inhibition (% control growth, LC50, TGI, GI50) MDA-MB-231; assay type: cell-based
[2] = tested on: Human Pancreatic Cancer Cell Line Mia-Pa-Ca-2; experiment: Growth inhibition (% control growth, LC50, TGI, GI50) Mia-Pa-Ca-2; assay type: cell-based; settings: for GI50: Homo sapiens
Experimental: The therapeutic effect of SA1 (peak 5) and SA2 (peak 4) is evaluated against human pancreatic cancer cell line Mia-Pa-Ca-2 by calculating the percentage growth inhibition, drug concentration of test compound needed to inhibit cell growth by 50% (GI50) values.
The therapeutic effect of SACC is evaluated against human […] cancer cell line Mia-Pa-Ca-2 by calculating the percentage growth inhibition, drug concentration of test compound needed to inhibit cell growth by 50% (GI50) values.

[3] = tested on: Human Lung Cancer Cell Line A-549; experiment: Growth inhibition (% control growth, LC50, TGI, GI50) A-549; assay type: cell-based
Experimental: The therapeutic effect of SA1 (peak 5) and SA2 (peak 4) is evaluated against human lung cancer cell line A-549 by calculating the percentage growth inhibition, drug concentration of test compound needed to inhibit cell growth by 50% (GI50) values.
The therapeutic effect of SACC is evaluated against human lung cancer cell line A-549 by calculating the percentage growth inhibition, drug concentration of test compound needed to inhibit cell growth by 50% (GI50) values.

[4] = tested on: human tumour xenograft MDA-MB-231; experiment: Human tumour xenograft MDA-MB-231 model, tumour volume and relative tumour volume; assay type: in vivo, mice; parameters: Tumor Volume: unit not given here; settings: Group B; for RTV (Relative Tumour Volume): 2.5 mg/kg i.v. day 1, 5, 9
Experimental: The therapeutic effect of SACC is evaluated against triple-negative breast cancer cell line MDA-MB-231 by analysing tumour volume and relative tumour volume. The study involved the use of six mice. These mice were administrated treatment according to the following Groups: […]

## COc1cccc2c1C(=O)c1c(O)c3c(c(O)c1C2=O)C[C@@](O)(C(=O)CO)C[C@@H]3O[C@H]1C[C@H](N)[C@H](O)[C@H](C)O1 [ADR, Adriamycin]
[1]; 10 μg/ml, Experiment 2
  % Control Growth: −89.3%
[1]; 20 μg/ml, Experiment 1
  % Control Growth: −85.1%
[1]; 40 μg/ml, Experiment 1
  % Control Growth: −80.9%
[1]; 80 μg/ml, Experiment 3
  % Control Growth: −71.2%
[2]; MIA PaCa-2, Mia-Pa-Ca-2, calculated from graph
  GI50: < 10 µg/mL
[2]; MIA PaCa-2, Mia-Pa-Ca-2, Molar drug concentrations calculated from graph
  GI50: 4.75 µg/mL (≈ 8.74 µM)
[2]; Mia-Pa-Ca-2, 10 μg/ml, Average Values
  % Control Growth: −89.7%
[2]; Mia-Pa-Ca-2, 10 μg/ml, Experiment 1
  % Control Growth: −88.7%
[2]; Mia-Pa-Ca-2, 10 μg/ml, Experiment 2
  % Control Growth: −89.2%
[2]; Mia-Pa-Ca-2, 10 μg/ml, Experiment 3
  % Control Growth: −91.2%
[2]; Mia-Pa-Ca-2, 20 μg/ml, Average Values
  % Control Growth: −91.1%
[2]; Mia-Pa-Ca-2, 20 μg/ml, Experiment 1
  % Control Growth: −91.3%
[2]; Mia-Pa-Ca-2, 20 μg/ml, Experiment 2
  % Control Growth: −90.4%
[2]; Mia-Pa-Ca-2, 20 μg/ml, Experiment 3
  % Control Growth: −91.5%
[2]; Mia-Pa-Ca-2, 40 μg/ml, Average Values
  % Control Growth: −91.5%
[2]; Mia-Pa-Ca-2, 40 μg/ml, Experiment 1
  % Control Growth: −91.4%
[2]; Mia-Pa-Ca-2, 40 μg/ml, Experiment 2
  % Control Growth: −92.3%
[2]; Mia-Pa-Ca-2, 40 μg/ml, Experiment 3
  % Control Growth: −91.0%
[2]; Mia-Pa-Ca-2, 80 μg/ml, Average Values
  % Control Growth: −84.7%
[2]; Mia-Pa-Ca-2, 80 μg/ml, Experiment 1
  % Control Growth: −84.1%
[2]; Mia-Pa-Ca-2, 80 μg/ml, Experiment 2
  % Control Growth: −87.5%
[2]; Mia-Pa-Ca-2, 80 μg/ml, Experiment 3
  % Control Growth: −82.3%
[2]; Mia-Pa-Ca-2, 10^−4M, Average Values
  % Control Growth: −89.6%
[2]; Mia-Pa-Ca-2, 10^−4M, Experiment 1
  % Control Growth: −88.2%
[2]; Mia-Pa-Ca-2, 10^−4M, Experiment 2
  % Control Growth: −89.7%
[2]; Mia-Pa-Ca-2, 10^−4M, Experiment 3
  % Control Growth: −91.0%
[2]; Mia-Pa-Ca-2, 10^−5M, Average Values
  % Control Growth: −87.8%
[2]; Mia-Pa-Ca-2, 10^−5M, Experiment 1
  % Control Growth: −88.7%
[2]; Mia-Pa-Ca-2, 10^−5M, Experiment 2
  % Control Growth: −87.4%
[2]; Mia-Pa-Ca-2, 10^−5M, Experiment 3
  % Control Growth: −87.3%
[2]; Mia-Pa-Ca-2, 10^−6M, Average Values
  % Control Growth: −75.8%
[2]; Mia-Pa-Ca-2, 10^−6M, Experiment 1
  % Control Growth: −77.3%
[2]; Mia-Pa-Ca-2, 10^−6M, Experiment 2
  % Control Growth: −75.7%
[2]; Mia-Pa-Ca-2, 10^−6M, Experiment 3
  % Control Growth: −74.5%
[2]; Mia-Pa-Ca-2, 10^−7M, Average Values
  % Control Growth: −60.2%
[2]; Mia-Pa-Ca-2, 10^−7M, Experiment 1
  % Control Growth: −3.2%
[2]; Mia-Pa-Ca-2, 10^−7M, Experiment 2
  % Control Growth: −88.2%
[2]; Mia-Pa-Ca-2, 10^−7M, Experiment 3
  % Control Growth: −89.3%
[2]; Mia-Pa-Ca-2, Molar drug concentrations calculated from graph
  TGI: 4.69 µg/mL (≈ 8.63 µM)
[2]; Mia-Pa-Ca-2, calculated from graph
  TGI: <10 µg/mL
[3]; A-549, 10 μg/ml, Average Values
  % Control Growth: −26.5%
[3]; A-549, 10 μg/ml, Experiment 1
  % Control Growth: −23.5%
[3]; A-549, 10 μg/ml, Experiment 2
  % Control Growth: −29.5%
[3]; A-549, 10 μg/ml, Experiment 3
  % Control Growth: −26.5%
[3]; A-549, 20 μg/ml, Average Values
  % Control Growth: −30.8%
[3]; A-549, 20 μg/ml, Experiment 1
  % Control Growth: −28.2%
[3]; A-549, 20 μg/ml, Experiment 2
  % Control Growth: −33.8%
[3]; A-549, 20 μg/ml, Experiment 3
  % Control Growth: −30.4%
[3]; A-549, 40 μg/ml, Average Values
  % Control Growth: −46.0%
[3]; A-549, 40 μg/ml, Experiment 1
  % Control Growth: −45.0%
[3]; A-549, 40 μg/ml, Experiment 2
  % Control Growth: −48.7%
[3]; A-549, 40 μg/ml, Experiment 3
  % Control Growth: −44.2%
[3]; A-549, 80 μg/ml, Average Values
  % Control Growth: −50.0%
[3]; A-549, 80 μg/ml, Experiment 1
  % Control Growth: −49.4%
[3]; A-549, 80 μg/ml, Experiment 2
  % Control Growth: −51.0%
[3]; A-549, 80 μg/ml, Experiment 3
  % Control Growth: −49.4%
[3]; A-549, 10^−4M, Average Values
  % Control Growth: −43.0%
[3]; A-549, 10^−4M, Experiment 1
  % Control Growth: 36.5%
[3]; A-549, 10^−4M, Experiment 2
  % Control Growth: 44.4%
[3]; A-549, 10^−4M, Experiment 3
  % Control Growth: −48.1%
[3]; A-549, 10^−5M, Average Values
  % Control Growth: −34.9%
[3]; A-549, 10^−5M, Experiment 1
  % Control Growth: −30.6%
[3]; A-549, 10^−5M, Experiment 2
  % Control Growth: −33.8%
[3]; A-549, 10^−5M, Experiment 3
  % Control Growth: −40.3%
[3]; A-549, 10^−6M, Average Values
  % Control Growth: −4.0%
[3]; A-549, 10^−6M, Experiment 1
  % Control Growth: 10.2%
[3]; A-549, 10^−6M, Experiment 2
  % Control Growth: −11.3%
[3]; A-549, 10^−6M, Experiment 3
  % Control Growth: −11.0%
[3]; A-549, 10^−7M, Average Values
  % Control Growth: 12.4%
[3]; A-549, 10^−7M, Experiment 1
  % Control Growth: 53.2%
[3]; A-549, 10^−7M, Experiment 2
  % Control Growth: 15.9%
[3]; A-549, 10^−7M, Experiment 3
  % Control Growth: −32.0%
[3]; A-549, Molar drug concentrations calculated from graph
  TGI: 4.143 µg/mL (≈ 7.62 µM)
[3]; A-549, calculated from graph
  TGI: <10 µg/mL
[3]; Homo sapiens, A549, A-549, calculated from graph
  GI50: < 10 µg/mL
[3]; Homo sapiens, A549, read-out: LC50, A-549, calculated from graph
  CC50: 72 µg/mL (≈ 132 µM)
[3]; Homo sapiens, A549, A-549, Molar drug concentrations calculated from graph
  GI50: 1.2 µg/mL (≈ 2.21 µM)
[4]; day 9
  RTV (Relative Tumour Volume): 0.95
[4]; day 15
  RTV (Relative Tumour Volume): 1.63
[4]; day 18
  RTV (Relative Tumour Volume): 1.93
[4]; day 21
  RTV (Relative Tumour Volume): 2.29
[4]; day 25
  RTV (Relative Tumour Volume): 4.22
[4]; day 30
  RTV (Relative Tumour Volume): 7.30
[4]; ADR 2.5 mg/Kg
  tumour volume (in words): decreased tumour volume
[4]; ADR 2.5 mg/Kg, day 1, Mouse 1
  Tumor Volume: 0.06
[4]; ADR 2.5 mg/Kg, day 1, Mouse 2
  Tumor Volume: 0.05
[4]; ADR 2.5 mg/Kg, day 1, Mouse 3
  Tumor Volume: 0.06
[4]; ADR 2.5 mg/Kg, day 1, Mouse 4
  Tumor Volume: 0.05
[4]; ADR 2.5 mg/Kg, day 1, Mouse 5
  Tumor Volume: 0.06
[4]; ADR 2.5 mg/Kg, day 1, Mouse 6
  Tumor Volume: 0.06
[4]; ADR 2.5 mg/Kg, day 5, Mouse 1
  Tumor Volume: 0.05
[4]; ADR 2.5 mg/Kg, day 5, Mouse 2
  Tumor Volume: 0.07
[4]; ADR 2.5 mg/Kg, day 5, Mouse 3
  Tumor Volume: 0.06
[4]; ADR 2.5 mg/Kg, day 5, Mouse 4
  Tumor Volume: 0.06
[4]; ADR 2.5 mg/Kg, day 5, Mouse 5
  Tumor Volume: 0.05
[4]; ADR 2.5 mg/Kg, day 5, Mouse 6
  Tumor Volume: 0.06
[4]; ADR 2.5 mg/Kg, day 9, Mouse 1
  Tumor Volume: 0.05
[4]; ADR 2.5 mg/Kg, day 9, Mouse 2
  Tumor Volume: 0.08
[4]; ADR 2.5 mg/Kg, day 9, Mouse 3
  Tumor Volume: 0.04
[4]; ADR 2.5 mg/Kg, day 9, Mouse 4
  Tumor Volume: 0.04
[4]; ADR 2.5 mg/Kg, day 9, Mouse 5
  Tumor Volume: 0.06
[4]; ADR 2.5 mg/Kg, day 9, Mouse 6
  Tumor Volume: 0.05
[4]; ADR 2.5 mg/Kg, day 12, Mouse 1
  Tumor Volume: 0.06
[4]; ADR 2.5 mg/Kg, day 12, Mouse 2
  Tumor Volume: 0.10
[4]; ADR 2.5 mg/Kg, day 12, Mouse 3
  Tumor Volume: 0.05
[4]; ADR 2.5 mg/Kg, day 12, Mouse 4
  Tumor Volume: 0.05
[4]; ADR 2.5 mg/Kg, day 12, Mouse 5
  Tumor Volume: 0.06
[4]; ADR 2.5 mg/Kg, day 12, Mouse 6
  Tumor Volume: 0.07
[4]; ADR 2.5 mg/Kg, day 15, Mouse 1
  Tumor Volume: 0.07
[4]; ADR 2.5 mg/Kg, day 15, Mouse 2
  Tumor Volume: 0.16
[4]; ADR 2.5 mg/Kg, day 15, Mouse 3
  Tumor Volume: 0.07
[4]; ADR 2.5 mg/Kg, day 15, Mouse 4
  Tumor Volume: 0.06
[4]; ADR 2.5 mg/Kg, day 15, Mouse 5
  Tumor Volume: 0.08
[4]; ADR 2.5 mg/Kg, day 15, Mouse 6
  Tumor Volume: 0.11
[4]; ADR 2.5 mg/Kg, day 18, Mouse 1
  Tumor Volume: 0.07
[4]; ADR 2.5 mg/Kg, day 18, Mouse 2
  Tumor Volume: 0.21
[4]; ADR 2.5 mg/Kg, day 18, Mouse 3
  Tumor Volume: 0.07
[4]; ADR 2.5 mg/Kg, day 18, Mouse 4
  Tumor Volume: 0.07
[4]; ADR 2.5 mg/Kg, day 18, Mouse 5
  Tumor Volume: 0.07
[4]; ADR 2.5 mg/Kg, day 18, Mouse 6
  Tumor Volume: 0.16
[4]; ADR 2.5 mg/Kg, day 21, Mouse 1
  Tumor Volume: 0.05
[4]; ADR 2.5 mg/Kg, day 21, Mouse 2
  Tumor Volume: 0.23
[4]; ADR 2.5 mg/Kg, day 21, Mouse 3
  Tumor Volume: 0.08
[4]; ADR 2.5 mg/Kg, day 21, Mouse 4
  Tumor Volume: 0.11
[4]; ADR 2.5 mg/Kg, day 21, Mouse 5
  Tumor Volume: 0.13
[4]; ADR 2.5 mg/Kg, day 21, Mouse 6
  Tumor Volume: 0.17
[4]; ADR 2.5 mg/Kg, day 25, Mouse 1
  Tumor Volume: 0.08
[4]; ADR 2.5 mg/Kg, day 25, Mouse 2
  Tumor Volume: 0.31
[4]; ADR 2.5 mg/Kg, day 25, Mouse 3
  Tumor Volume: 0.33
[4]; ADR 2.5 mg/Kg, day 25, Mouse 4
  Tumor Volume: 0.24
[4]; ADR 2.5 mg/Kg, day 25, Mouse 5
  Tumor Volume: 0.17
[4]; ADR 2.5 mg/Kg, day 25, Mouse 6
  Tumor Volume: 0.29
[4]; ADR 2.5 mg/Kg, day 30, Mouse 2
  Tumor Volume: 0.53
[4]; ADR 2.5 mg/Kg, day 30, Mouse 3
  Tumor Volume: 0.55
[4]; ADR 2.5 mg/Kg, day 30, Mouse 4
  Tumor Volume: 0.29
[4]; ADR 2.5 mg/Kg, day 30, Mouse 5
  Tumor Volume: 0.28
[4]; ADR 2.5 mg/Kg, day 30, Mouse 6
  Tumor Volume: 0.40
